# In publication PMC8230281, “Improving the Pharmacological Properties of Ciclopirox for Its Use in Congenital Erythropoietic Porphyria” (Journal of Personalized Medicine, 2021):
# Tests used:
# [1] = test system: cellular models of the disease, obtained from HEK cells by CRISPR/Cas9 editing; assay: Equivalent cellular studies in cellular models of CEP (data not shown); assay type: cell-based
# Excerpt: We first tested the derivatives on different cellular models of the disease, obtained from HEK cells by CRISPR/Cas9 editing. The selected mutations (UROIIIS^C73R and UROIIIS^P248Q) result in destabilized proteins and severe phenotypes. […] Thus, the reported activity for CPXpom is attributed to a proper hydrolysis of the compound into the active species.
# [2] = design: method as in PMID 7028047; settings: rats; 4 weeks; doses up to 300 mg/kg; cited from earlier work
# [3] = design: method as in PMID 7197542; settings: oral; 1 mg/kg rats, 10-15 mg/kg dogs; cited from earlier work
# [4] = test system: HEK CRISPR Cas UROIIIS-P248Q cell line; assay: URO I levels in HEK CRISPR/Cas9 cellular model of CEP (UROIIIS-P248Q), HPLC; assay type: cell-based; settings: UROIIIS^P248Q HEK cells; 60 µM
# Method: (§1) The compound ciclopirox (CPX, 6-cyclohexyl-1-hydroxy-4-methyl-2(1H)-pyridinone) was purchased from Santa Cruz Biotechnology (sc-204688), and phosphorylated ciclopirox (CPXpom, O-phosphoryl-methylen-6-cyclohexyl-1-hydroxy-4-metyl-2(1H)-Pyridinone) was synthetized by Charnwood Molecular Ltd. PD of CPX was studied in HEK CRISPR Cas UROIIIS-C73R and UROIIIS-P248Q cell lines. Briefly, 60 µM dose of CPX and phosphorylated CPX was administrated for 30 min and 1, 2, and 4 h of exposition. Then, the cells were counted and harvested. Samples were treated by the same protocol for the porphyrin extraction. Mouse experiments. For the PK experiments and for each bolus administration method 10 WT ICR (CD-1®) outbred mice (Envigo) were used. […] In the PD experiments, the concentration of porphyrins was measured from circulating blood. […]
# (§2) Murine blood samples were obtained from the submandibular vein and collected in ethylenediaminetetraacetic acid tubes; samples were aliquoted and stored in a freezer at −80 °C. […] The samples were then analyzed by HPLC.
# (§3) Porphyrins from cell lines were separated by HPLC analysis on a ODS Hypersil C18 column (5 µm, 3 mm × 200 mm; Thermo Scientific, Waltham, MA, US) in a HPLC chromatograph (Shimadzu, Long Beach, CA, US). […] All analyses were performed at 20 °C, and porphyrins were detected by fluorescence with an excitation wavelength 405 nm and emission wavelength 610 nm. […]
# [5] = GI toxicity in WT mice after administration of CPX or CPXpom; assay type: in vivo; settings: for GI toxicity: 100 mg/kg; for macroscopic inflammation of the gut: mice, Figure 1
# [6] = Serum CPX pharmacokinetics in mice after single IV or oral dose, quantified by NMR; assay type: in vivo
# Method: as §1, with “used. Serum was collected after the administration at 1, 2, 4, 6 (7), 12, and 24 h. At 48 (36) h, the mice were sacrificed. Triplicates were collected for each data point.” for “used.”
# NMR data were collected at on an 800-MHz Bruker Avance III spectrometer equipped with a cryoprobe and on a 600-MHz Bruker Avance III US2 spectrometer. […] Metabolic quantification was carried out at peaks’ integral against the added internal reference compound. […]
# Non-compartmental serum and urine pharmacokinetic parameters for CPXpom and CPX were determined using SimBiology module in MATLAB. […]
# [7] = test system: mouse model of the disease (UROIIIS^P248Q/P248Q); assay: Oral gavage for 30 days in mouse model of CEP; assay type: in vivo; settings: UROIIIS^P248Q/P248Q mice; for reduction in total UROI levels in serum: oral gavage, after 30 days, equivalent dose
# Method: The compound ciclopirox (CPX, 6-cyclohexyl-1-hydroxy-4-methyl-2(1H)-pyridinone) was purchased from Santa Cruz Biotechnology (sc-204688), and phosphorylated ciclopirox (CPXpom, O-phosphoryl-methylen-6-cyclohexyl-1-hydroxy-4-metyl-2(1H)-Pyridinone) was synthetized by Charnwood Molecular Ltd. PD of CPX was studied in HEK CRISPR Cas UROIIIS-C73R and UROIIIS-P248Q cell lines. Briefly, 60 µM dose of CPX and phosphorylated CPX was administrated for 30 min and 1, 2, and 4 h of exposition. Then, the cells were counted and harvested. Samples were treated by the same protocol for the porphyrin extraction. Mouse experiments. For the PK experiments and for each bolus administration method 10 WT ICR (CD-1®) outbred mice (Envigo) were used. Serum was collected after the administration at 1, 2, 4, 6 (7), 12, and 24 h. At 48 (36) h, the mice were sacrificed. Triplicates were collected for each data point. Urine samples were collected at the same interval. In the PD experiments, the concentration of porphyrins was measured from circulating blood. Blood samples were extracted from the submandibular vein every week, and mice were weighed before each extraction. Mice were treated with oral CPX by gavage to evaluate CPX dose efficiency. […] All work performed with animals was approved by the competent authority (Diputación Foral de Bizkaia) following European and Spanish directives. The CIC bioGUNE Animal Facility is accredited by AAALAC Intl.
# as §2, §3
# [8] = test system: HEK CRISPR Cas UROIIIS-C73R cell line; assay: URO I levels in HEK CRISPR/Cas9 cellular model of CEP (UROIIIS-C73R), HPLC; assay type: cell-based; settings: UROIIIS^C73R HEK cells; 60 µM; 30 min to 4 h
# Method: as §1, §2, §3
# [9] = design: method as in PMID 2989308; settings: weak acidic N-hydroxyl group of the 1-hydroxy-2(1H)-pyridones; cited from earlier work
# [10] = test system: murine models of CEP; design: method as in PMID 30232228; settings: cited from earlier work
compound,measurement,setting,value
NC(Cn1ccc(=O)c(O)c1)C(=O)O (stereo not shown) [mimosine],activity in cellular models of CEP,[1],no activity
Cc1cc(C2CCCCC2)n(O)c(=O)c1 [ciclopirox-olamine],gastric findings,[2],gastric irritation and chronic gastritis
same,elimination in urine (time),[3],3 to 6 h
"Cc1cc(C2CCCCC2)n(OCOP(=O)(O)O)c(=O)c1 [CPXpom, O-phosphoryl-methylen-6-cyclohexyl-1-hydroxy-4-metyl-2(1H)-Pyridinone]",levels of the toxic by-product URO I,[4],significantly reduced
same,GI toxicity,"[5]; WT mice, oral (gavage)",does not result in GI toxicity
same,macroscopic inflammation of the gut,[5],no macroscopic inflammation
same,circulating concentration of CPXpom (NMR spectrum of serum),[6]; after CPXpom administration,below the detection limit
same,reduction in total UROI levels in serum,[7],5%
same,GI toxicity,[7]; orally by gavage for 30 days,no GI toxicity was observed
same,levels of the toxic by-product URO I,[8],significantly reduced
"Cc1cc(C2CCCCC2)n(O)c(=O)c1 [CPX, 6-cyclohexyl-1-hydroxy-4-methyl-2(1H)-pyridinone]",pK,[9],7
same,levels of the toxic by-product URO I,[4],significantly reduced
same,macroscopic inflammation of the gut,[5],Macroscopic inflammation can be observed
same,GI toxicity,"[5]; mouse, in vivo, po",results in GI toxicity
same,CPXFREE,"[6]; Table S3, serum, IV, dose 10 mg/kg, CPXfree = CPXtot − CPXglu",< 21.4%
same,reduction in total UROI levels in serum,[7],40%
same,levels of the toxic by-product URO I,[8],significantly reduced
same,splenomegaly,[10]; indirect measure of reduction in circulating porphyrins,reduced splenomegaly
same,"levels of the toxic porphyrins, particularly URO I and COPRO I","[10]; liver, red blood cells, and urine",significant decrease
